Experimental data from patent US10548911B2, “Small molecule anti-scarring agents” (UNIVERSITY OF ROCHESTER, priority 2014, dated 2020).

Columns and labels:
[1] = system: TGFβ-induced myofibroblast formation in human fibroblasts; experiment: Western blot of myofibroblast markers αSMA and calponin in TGFβ-treated human (TED orbital) fibroblasts; format: cell-based; details: 250 nM, TGFβ, 72 hours
Procedure: TED fibroblasts were treated with TGFβ (1 ng/ml) in the presence or absence of 10-250 nM salinomycin for 72 hours to allow formation of myofibroblasts. After 72 hours, cells were harvested and analyzed by Western blot. As expected, the fibroblasts robustly responded to TGFβ, expressing high levels of αSMA and calponin (FIG. 2A). […] At 50 nM salinomycin, expression of αSMA was reduced by 4-fold over TGFβ treatment alone. Furthermore, at 250 nM salinomycin, αSMA expression was reduced by approximately 16-fold, to levels at or below untreated fibroblasts. […] Another key role of myofibroblasts in scar formation is the production of collagen. Whether salinomycin could block myofibroblast collagen production was assessed. Cells were treated with TGFβ and salinomycin as above and after 72 hours, culture medium was collected and analyzed for collagen levels using a specific collagen I antibody and slot blot analysis.
To test these four compounds, human fibroblasts were treated with TGFβ in the absence or presence of 250 nM of either salinomycin, narasin, clioquinol or monensin for 72 hours. After treatment, cell lysates were harvested and analyzed for the presence of the myofibroblast markers, αSMA and calponin (FIG. 3B).

[2] = system: TGFβ signaling; experiment: Chembridge collection screen with HEK293-Thy1 SBE-Luc cell line (normalized luciferase activity); format: cell-based, human; details: Chembridge collection re-screen
Text: Using the recombinant HEK293-Thy1 SBE-Luc cell line described in the preceding Examples, the Chembridge collection of 20,000 small molecules was screened to identify other small molecules that inhibit TGFβ activity and, thus, may be novel anti-scarring compounds
100 top candidates from the initial screen were re-screened. Numbers indicate the Chembride molecule ID number. The second screen controls for toxicity and non-specific effects by using a constitutive luciferase to normalize results. This assay can be further used in a high throughput fashion to analyze newly derived compounds and monitor structure activity relationships (SAR) to discover new molecules that can serve as the basis for anti-scarring therapeutics.
The two-dimensional structures of the molecules are depicted in the left hand column. Chembridge collection IDs are listed in the second column and the additional columns denote the following (in order): the molecular name, the percent inhibition of the molecule using the screen (100% being a complete inhibition) (% Inhib.), and the internal key (key) for further identification in FIGS. 22 and 23.

[3] = system: human orbital fibroblasts; experiment: Myofibroblast formation assay (cell images) of Chembridge hits in human orbital fibroblasts; format: cell-based
Procedure: FIG. 22 is a panel of cell images showing efficacy of selected Chembridge hits in myofibroblast formation assays using human orbital fibroblasts. […] Key: SNC: salinomycin control; A1: 5255687; A2:5130037; A4:9040737; B3:9057423; C2:9018748; C3:9048694; C4:9022265.
(§1) Selected Chembridge hits were tested in myofibroblast formation assays using human orbital fibroblasts (FIG. 22) and human lung fibroblasts (FIG. 23).

[4] = system: human lung fibroblasts; experiment: Myofibroblast formation assay (cell images) of Chembridge hits in human lung fibroblasts; format: cell-based
Procedure: FIG. 23 is a panel of cell images showing efficacy of selected Chembridge hits in myofibroblast formation assays using human lung fibroblasts. […] Key: SNC: salinomycin control; A1: 5255687; A2:5130037; A4:9040737; B3:9057423; C2:9018748; C3:9048694; C4:9022265.
as §1

Compound	expression of αSMA and calponin [1]	% Inhib. (percent inhibition of the molecule using the screen, 100% being a complete inhibition) [2]	TGFβ induced myofibroblast formation (cell images) [3]	cell death (cell images) [3]	TGFβ induced myofibroblast formation (cell images) [4]	cell death (cell images) [4]
Oc1c(I)cc(Cl)c2cccnc12 [clioquinol]	did not inhibit	–	–	–	–	–
CCOC(=O)c1c(N)sc2c1CCC/C2=N/O [compound 5130037, ethyl 2-amino-7-(hydroxyimino)-4,5,6,7-tetrahydro-1-benzothiophene-3-carboxylate]	–	68%	preventing TGFβ induced myofibroblast formation	not causing cell death	preventing TGFβ induced myofibroblast formation	not causing cell death
Cc1cc(C)c(C(=O)/C=C/c2ccccc2Cl)c(=O)[nH]1 [compound 5255687, 3-[3-(2-chlorophenyl)acryloyl]-4,6-dimethyl-2(1H)-pyridinone]	–	70%	preventing TGFβ induced myofibroblast formation	not causing cell death	preventing TGFβ induced myofibroblast formation	not causing cell death
O=C(Nc1nc2ccccc2[nH]1)c1ccccc1Br [compound 7263741, N-1H-benzimidazol-2-yl-2-bromobenzamide]	–	46%	–	–	–	–
OCc1ccc(Sc2ccc(Cl)cc2)o1 [compound 7586770, {5-[(4-chlorophenyl)thio]-2-furyl}methanol]	–	80%	–	–	–	–
C=CCOc1ccc(NC(=O)c2ccc(CN3CCOCC3)cc2)cc1 [compound 7991998, N-[4-(allyloxy)phenyl]-4-(4-morpholinomethyl)benzamide]	–	60%	–	–	–	–
Cc1ccc(NC2=Nn3c(Cc4ccccc4)nnc3SC2)cc1 [compound 9016022, 3-benzyl-N-(4-methylphenyl)-7H-[1,2,4]triazolo[3,4-b][1,3,4]thiadiazin-6-amine]	–	46%	–	–	–	–
Cc1cc(Cl)c(Cl)cc1S(=O)(=O)NCc1ccncc1 [compound 9018748, 4,5-dichloro-2-methyl-N-(4-pyridinylmethyl)benzenesulfonamide]	–	95%	preventing TGFβ induced myofibroblast formation	not causing cell death	preventing TGFβ induced myofibroblast formation	not causing cell death
O=S(=O)(NCc1ccncc1)c1cccc(F)c1 [compound 9019912, 3-fluoro-N-(4-pyridinylmethyl)benzenesulfonamide]	–	58%	–	–	–	–
Cc1cc(S(=O)(=O)NCc2ccncc2)ccc1F [compound 9021391, 4-fluoro-3-methyl-N-(4-pyridinylmethyl)benzenesulfonamide]	–	66%	–	–	–	–
CCOc1ccc(S(=O)(=O)NCc2ccncc2)c(C)c1C [compound 9022265, 4-ethoxy-2,3-dimethyl-N-(4-pyridinylmethyl)benzenesulfonamide]	–	84%	preventing TGFβ induced myofibroblast formation	not causing cell death	preventing TGFβ induced myofibroblast formation	not causing cell death
CC1=Nc2ccccc2NC2=C1C(=O)CC(c1ccco1)C2 (stereo not shown) [compound 9025733, 3-(2-furyl)-11-methyl-2,3,4,5-tetrahydro-1H-dibenzo[b,e][1,4]diazepin-1-one]	–	84%	–	–	–	–
CC(C)(C)NS(=O)(=O)c1ccc(NC(=O)c2ccncc2)cc1 [compound 9038066, N-{4-[(tert-butylamino)sulfonyl]phenyl}isonicotinamide]	–	54%	–	–	–	–
Cc1nn2c(=O)cc(-c3ccccc3)[nH]c2c1-c1ccc(F)cc1 [compound 9040737, 3-(4-fluorophenyl)-2-methyl-5-phenylpyrazolo[1,5-a]pyrimidin-7(4H)-one]	–	63%	preventing TGFβ induced myofibroblast formation	not causing cell death	preventing TGFβ induced myofibroblast formation	not causing cell death
Cc1ccc(C(C)NC(=O)c2c(Cl)cnn2C)cc1C (stereo not shown) [compound 9043411, 4-chloro-N-[1-(3,4-dimethylphenyl)ethyl]-1-methyl-1H-pyrazole-5-carboxamide]	–	37%	–	–	–	–
COc1ccccc1NC(=O)C#Cc1ccccc1 [compound 9048694, N-(2-methoxyphenyl)-3-phenyl-2-propynamide]	–	92%	preventing TGFβ induced myofibroblast formation	not causing cell death	preventing TGFβ induced myofibroblast formation	not causing cell death
CNC(=O)c1ccccc1OCCOc1ccccc1 [compound 9057423, N-methyl-2-(2-phenoxyethoxy)benzamide]	–	51%	preventing TGFβ induced myofibroblast formation	not causing cell death	preventing TGFβ induced myofibroblast formation	not causing cell death
Cc1nn2c(=O)cc(-c3ccc(Cl)cc3)[nH]c2c1-c1ccccc1 [compound 9080334, 5-(4-chlorophenyl)-2-methyl-3-phenylpyrazolo[1,5-a]pyrimidin-7(4H)-one]	–	41%	–	–	–	–
CC(Nc1ncnc2c1oc1ccccc12)c1ccccc1.Cl (stereo not shown) [compound 9104696, N-(1-phenylethyl)[1]benzofuro[3,2-d]pyrimidin-4-amine hydrochloride]	–	75%	–	–	–	–
CCN(CC)C(=O)c1ccc(Cl)c(N)c1 [compound 9116592, 3-amino-4-chloro-N,N-diethylbenzamide]	–	92%	–	–	–	–
CC[C@@]1([C@@H]2O[C@@H]([C@H]3O[C@@](O)(CO)[C@H](C)C[C@@H]3C)C[C@@H]2C)CC[C@H]([C@]2(C)CC[C@]3(C[C@H](O)[C@@H](C)[C@@H]([C@@H](C)[C@@H](OC)[C@H](C)C(=O)O)O3)O2)O1 [monensin]	inhibited expression of αSMA and calponin	–	–	–	–	–
